Measurements reported in ChEMBL document CHEMBL3885881, “DrugMatrix”.

Species: Rattus norvegicus
Experiment: DrugMatrix - Regimen: Daily Repeat
Format: toxicity, organism-based, Sprague-Dawley
Set-up: regimen Daily Repeat, gender Male, age 6-8 weeks
Details: in vivo, po, 1500 mg/kg, route oral GAVAGE, dose level High, vehicle .5 % CMC; for ABSOLUTE BASOPHIL / ABSOLUTE EOSINOPHIL / ABSOLUTE LYMPHOCYTE / ABSOLUTE MONOCYTE / ABSOLUTE SEGMENTED NEUTROPHIL / BASOPHIL / EOSINOPHIL / ERYTHROCYTE COUNT / HEMATOCRIT / HEMOGLOBIN / LEUKOCYTE COUNT / LYMPHOCYTE / MEAN CORPUSCULAR HEMOGLOBIN / MEAN CORPUSCULAR HEMOGLOBIN CONCENTRATION / MEAN CORPUSCULAR VOLUME / MONOCYTE / NEUTROPHIL / NUCLEATED RED BLOOD CELLS / PLATELET COUNT: tissue Blood; for ALANINE AMINOTRANSFERASE / ALBUMIN / ALKALINE PHOSPHATASE / ASPARTATE AMINOTRANSFERASE / BLOOD UREA NITROGEN / CARBON DIOXIDE / CHLORIDE / CHOLESTEROL / CREATINE PHOSPHOKINASE / CREATININE / GLUCOSE / LACTATE DEHYDROGENASE / LIPASE / PHOSPHORUS / POTASSIUM / SODIUM / TOTAL BILIRUBIN / TOTAL PROTEIN / URIC ACID: tissue Plasma

Structure (SMILES): O=C(N[C@H](CO)[C@H](O)c1ccc([N+](=O)[O-])cc1)C(Cl)Cl [CHLORAMPHENICOL]
- ABSOLUTE BASOPHIL (72 h, time 3 day): 0 CELLS/uL
- ABSOLUTE EOSINOPHIL (72 h, time 3 day): 0 CELLS/uL
- ABSOLUTE LYMPHOCYTE (72 h, time 3 day): 14694 CELLS/uL
- ABSOLUTE MONOCYTE (72 h, time 3 day): 312.67 CELLS/uL
- ABSOLUTE SEGMENTED NEUTROPHIL (72 h, time 3 day): 793.33 CELLS/uL
- BASOPHIL (72 h, time 3 day): 0%
- EOSINOPHIL (72 h, time 3 day): 0%
- ERYTHROCYTE COUNT (72 h, time 3 day): 5.41 x10E6/uL
- HEMATOCRIT (72 h, time 3 day): 34.37%
- HEMOGLOBIN (72 h, time 3 day): 13.67 G/DL
- LEUKOCYTE COUNT (72 h, time 3 day): 15.8 x10E3/uL
- LYMPHOCYTE (72 h, time 3 day): 93%
- MEAN CORPUSCULAR HEMOGLOBIN (72 h, time 3 day): 25.33 pg
- MEAN CORPUSCULAR HEMOGLOBIN CONCENTRATION (72 h, time 3 day): 39.83 G/DL
- MEAN CORPUSCULAR VOLUME (72 h, time 3 day): 63.63 fL
- MONOCYTE (72 h, time 3 day): 2%
- NEUTROPHIL (72 h, time 3 day): 5%
- NUCLEATED RED BLOOD CELLS (72 h, time 3 day): 0 /100WBC
- PLATELET COUNT (72 h, time 3 day): 1264 x10E3/uL
- ALANINE AMINOTRANSFERASE (72 h, time 3 day): 78 u/L
- ALBUMIN (72 h, time 3 day): 4.33 G/DL
- ALKALINE PHOSPHATASE (72 h, time 3 day): 347 u/L
- ASPARTATE AMINOTRANSFERASE (72 h, time 3 day): 90.33 u/L
- BLOOD UREA NITROGEN (72 h, time 3 day): 15.67 mg/dL
- CARBON DIOXIDE (72 h, time 3 day): 37.67 mmol/L
- CHLORIDE (72 h, time 3 day): 101.33 MEQ/L
- CHOLESTEROL (72 h, time 3 day): 63 mg/dL
- CREATINE PHOSPHOKINASE (72 h, time 3 day): 530 u/L
- CREATININE (72 h, time 3 day): 0.15 mg/dL
- GLUCOSE (72 h, time 3 day): 150 mg/dL
- LACTATE DEHYDROGENASE (72 h, time 3 day): 92.67 u/L
- LIPASE (72 h, time 3 day): 9.33 u/L
- PHOSPHORUS (72 h, time 3 day): 10.53 mg/dL
- POTASSIUM (72 h, time 3 day): 6.53 MEQ/L
- SODIUM (72 h, time 3 day): 143.67 MEQ/L
- TOTAL BILIRUBIN (72 h, time 3 day): 0.13 mg/dL
- TOTAL PROTEIN (72 h, time 3 day): 5.6 G/DL
- URIC ACID (72 h, time 3 day): 1.4 mg/dL
- ABSOLUTE BASOPHIL (120 h, time 5 day): 0 CELLS/uL
- ABSOLUTE EOSINOPHIL (120 h, time 5 day): 0 CELLS/uL
- ABSOLUTE LYMPHOCYTE (120 h, time 5 day): 13927 CELLS/uL
- ABSOLUTE MONOCYTE (120 h, time 5 day): 280 CELLS/uL
- ABSOLUTE SEGMENTED NEUTROPHIL (120 h, time 5 day): 1126.33 CELLS/uL
- BASOPHIL (120 h, time 5 day): 0%
- EOSINOPHIL (120 h, time 5 day): 0%
- ERYTHROCYTE COUNT (120 h, time 5 day): 5.7 x10E6/uL
- HEMATOCRIT (120 h, time 5 day): 35.27%
- HEMOGLOBIN (120 h, time 5 day): 14.27 G/DL
- LEUKOCYTE COUNT (120 h, time 5 day): 15.33 x10E3/uL
- LYMPHOCYTE (120 h, time 5 day): 90.67%
- MEAN CORPUSCULAR HEMOGLOBIN (120 h, time 5 day): 25.07 pg
- MEAN CORPUSCULAR HEMOGLOBIN CONCENTRATION (120 h, time 5 day): 40.5 G/DL
- MEAN CORPUSCULAR VOLUME (120 h, time 5 day): 61.9 fL
- MONOCYTE (120 h, time 5 day): 2%
- NEUTROPHIL (120 h, time 5 day): 7.33%
- NUCLEATED RED BLOOD CELLS (120 h, time 5 day): 0.33 /100WBC
- PLATELET COUNT (120 h, time 5 day): 1090 x10E3/uL
- ALANINE AMINOTRANSFERASE (120 h, time 5 day): 63 u/L
- ALBUMIN (120 h, time 5 day): 4.13 G/DL
- ALKALINE PHOSPHATASE (120 h, time 5 day): 266.33 u/L
- ASPARTATE AMINOTRANSFERASE (120 h, time 5 day): 100.33 u/L
- BLOOD UREA NITROGEN (120 h, time 5 day): 22.33 mg/dL
- CARBON DIOXIDE (120 h, time 5 day): 35 mmol/L
- CHLORIDE (120 h, time 5 day): 103 MEQ/L
- CHOLESTEROL (120 h, time 5 day): 56 mg/dL
- CREATINE PHOSPHOKINASE (120 h, time 5 day): 359.67 u/L
- CREATININE (120 h, time 5 day): 0.2 mg/dL
- GLUCOSE (120 h, time 5 day): 144 mg/dL
- LACTATE DEHYDROGENASE (120 h, time 5 day): 180 u/L
- LIPASE (120 h, time 5 day): 8.67 u/L
- PHOSPHORUS (120 h, time 5 day): 9.33 mg/dL
- POTASSIUM (120 h, time 5 day): 9.76 MEQ/L
- SODIUM (120 h, time 5 day): 143.67 MEQ/L
- TOTAL BILIRUBIN (120 h, time 5 day): 0.17 mg/dL
- TOTAL PROTEIN (120 h, time 5 day): 5.23 G/DL
- URIC ACID (120 h, time 5 day): 1.3 mg/dL
